Measurements published in ChEMBL document CHEMBL4138214, “Urokinase receptor derived peptides as potent inhibitors of the formyl peptide receptor type 1-triggered cell migration” (Eur J Med Chem, 2018).
Active and inactive are the calls of the source. The rule behind the calls is not given here. Square brackets hold non-standard residues; d marks the D form. Peptide text beside a SMILES is read from it. 1Nal = N[C@@H](Cc1cccc2ccccc12)C(=O)O; 2Nal = N[C@@H](Cc1ccc2ccccc2c1)C(=O)O; pS = N[C@@H](COP(=O)(O)O)C(=O)O

Experiments:
Type in all cases: cell-based
[1] = system: RBL-2H3; assay: Induction of cell migration in rat RBL2H3 cells at 10 nM after 6 hrs by RTCA; conditions: rbl-2h3, 6 h, 0.01 µM
[2] = Induction of cell migration in rat RBL2H3/ETFR cells stably expressing FPR1 at 10 nM after 6 hrs by RTCA; conditions: 0.01 µM
[3] = species: Rattus norvegicus; assay: Antagonist activity at FPR1 in rat RBL-2H3/ETFR cells assessed as inhibition of fMLF-induced cell migration at 10 nM after 6 hrs by RTCA relative to fMLF
[4] = species: Rattus norvegicus; assay: Inhibition of FITC-fMLF induced FPR1 internalization in rat RBL-2H3/ETFR cells at 10 uM preincubated for 30 mins followed by agonist addition measured after 30 mins by fluorescence assay
[5] = species: Rattus norvegicus; assay: Inhibition of FITC-fMLF induced FPR1 internalization in rat RBL-2H3/ETFR cells at 10 uM preincubated for 30 mins followed by agonist addition measured after 30 mins by confocal fluorescent microscopy
[6] = (§1) Antagonist activity at FPR1 in rat RBL-2H3/ETFR cells assessed as inhibition of fMLF-induced cell migration after 4 hrs by RTCA relative to fMLF
[7] = species: Rattus norvegicus; assay: as §1
[8] = Rattus norvegicus, RBL-2H3, 4 h, read-out: IC50

Row | IC50 [6, 8] | IC50 [6] | Molecule | Activity [1] | Activity [2] | inhibition [3] | inhibition [4] | inhibition [5] | inhibition [7]
1 |  |  | N=C(N)NCCC[C@@H]1NC(=O)[C@H](CCC(=O)O)NC(=O)[C@H](CCCNC(=N)N)NC(=O)[C@H](Cc2c[nH]c3ccccc23)NC(=O)[C@H](CO)NC1=O (cyclo(ERSWR)) | Non-Toxic | Non-Toxic | 0% | inactive |  | 
2 |  |  | N=C(N)NCCC[C@H](NC(=O)[C@H](Cc1ccc(O)cc1)NC(=O)[C@H](COP(=O)(O)O)NC(=O)[C@H](CO)NC(=O)[C@@H](N)CCCNC(=N)N)C(N)=O (H-RS[pS]YR-NH2) | Non-Toxic | Non-Toxic | 0% | inactive | inactive | 
3 |  |  | N=C(N)NCCC[C@@H]1NC(=O)[C@H](CCC(=O)O)NC(=O)[C@H](CCCNC(=N)N)NC(=O)[C@H](Cc2ccccc2)NC(=O)[C@H](CO)NC1=O (cyclo(ERSFR)) | Non-Toxic | Non-Toxic | 20% | Active |  | 
4 | 0.1 pM |  | N=C(N)NCCC[C@@H]1NC(=O)[C@H](CO)NC(=O)[C@H](CCCNC(=N)N)NC(=O)[C@H](Cc2ccc(O)cc2)NC(=O)[C@H](CO)NC1=O (cyclo(RSRSY)) | Non-Toxic | Non-Toxic | 75% | Active | Active | Dose-dependent effect
5 |  |  | N=C(N)NCCC[C@@H]1NC(=O)[C@H](CCC(=O)O)NC(=O)[C@H](CCCNC(=N)N)NC(=O)[C@H](Cc2ccc(O)cc2)NC(=O)[C@H](CO)NC1=O (cyclo(ERSYR)) | Non-Toxic | Non-Toxic | 49% | 55% |  | 
6 |  |  | N=C(N)NCCC[C@@H]1NC(=O)[C@H](CO)NC(=O)[C@H](CCCNC(=N)N)NC(=O)[C@H](Cc2ccc(O)cc2)NC(=O)[C@H](COP(=O)(O)O)NC1=O (cyclo(RSR[pS]Y)) | Non-Toxic | Non-Toxic | 31% |  |  | 
7 |  |  | H-SRSRY-NH2 |  |  |  | Active |  | 
8 | 0.1 pM | Dose-dependent effect | N=C(N)NCCC[C@H](NC(=O)[C@H](COP(=O)(O)O)NC(=O)[C@H](CCCNC(=N)N)NC(=O)[C@@H](N)CO)C(=O)N[C@@H](Cc1ccc(O)cc1)C(N)=O (H-SR[pS]RY-NH2) | Non-Toxic | Non-Toxic | 67% | 67% | Active | 
9 |  |  | N=C(N)NCCC[C@@H]1NC(=O)[C@H](CCC(=O)O)NC(=O)[C@H](CCCNC(=N)N)NC(=O)[C@H](Cc2ccc(O)cc2)NC(=O)[C@H](CCC(=O)O)NC1=O (cyclo(EREYR)) | Non-Toxic | Non-Toxic | 61% | 61% |  | 
10 |  |  | N=C(N)NCCC[C@@H]1NC(=O)[C@H](CCC(=O)O)NC(=O)[C@H](CCCNC(=N)N)NC(=O)[C@H](Cc2ccc3ccccc3c2)NC(=O)[C@H](CO)NC1=O (cyclo([2Nal]RERS)) | Non-Toxic | Non-Toxic | 23% | Active |  | 
11 |  |  | N=C(N)NCCC[C@@H]1NC(=O)[C@H](COP(=O)(O)O)NC(=O)[C@H](CCCNC(=N)N)NC(=O)[C@H](Cc2ccc(O)cc2)NC(=O)[C@H](CO)NC1=O (cyclo(RSYR[pS])) | Non-Toxic | Non-Toxic | 36% |  |  | 
12 |  |  | N=C(N)NCCC[C@@H]1NC(=O)[C@H](CO)NC(=O)[C@H](CCCNC(=N)N)NC(=O)[C@H](Cc2ccc(O)cc2)NC(=O)[C@H](CCC(=O)O)NC1=O (cyclo(EYRSR)) | Non-Toxic | Non-Toxic | 34% |  |  | 
13 |  |  | CSCC[C@H](NC=O)C(=O)N[C@@H](CC(C)C)C(=O)N[C@@H](Cc1ccccc1)C(=O)O [N-FORMYLMETHIONYL-LEUCYLPHENYLALANINE] |  | Toxic |  | Active | Active | 
14 |  |  | N=C(N)NCCC[C@@H]1NC(=O)[C@H](CO)NC(=O)[C@H](CO)NC(=O)[C@H](Cc2ccc(O)cc2)NC(=O)[C@H](CCCNC(=N)N)NC1=O (cyclo(RRYSS)) | Non-Toxic | Non-Toxic | 0% | inactive | inactive | 
15 |  |  | N=C(N)NCCC[C@@H]1NC(=O)[C@H](CCC(=O)O)NC(=O)[C@H](CCCNC(=N)N)NC(=O)[C@H](Cc2cccc3ccccc23)NC(=O)[C@H](CO)NC1=O (cyclo([1Nal]RERS)) | Non-Toxic | Non-Toxic | 43% | 62% |  | 
16 |  |  | N=C(N)NCCC[C@H](NC(=O)[C@H](CO)NC(=O)[C@H](CCCNC(=N)N)NC(=O)[C@@H](N)COP(=O)(O)O)C(=O)N[C@@H](Cc1ccc(O)cc1)C(N)=O (H-[pS]RSRY-NH2) | Non-Toxic | Non-Toxic | 58% |  |  | 
